Reference: article PMC5570892, “Indole-based perenosins as highly potent HCl transporters and potential anti-cancer agents” (Scientific Reports, 2017)

How the values were obtained:
[1] = 1H NMR titration chloride binding studies; conditions: for Overall association constant β21 for the 2:1 host:guest complex: calculated by multiplying K 11 and K 21; for partial protonation of the imine nitrogen: one mole equivalent of HPF6, DMSO-d6/0.5% H2O; for Association constant of Cl^− in the presence of HPF6 (1 equiv.), 1:1 (K a) / Association constant of Cl^− in the presence of HPF6 (1 equiv.), 2:1, K 11 / Association constant of Cl^− in the presence of HPF6 (1 equiv.), 2:1, K 21: protonated perenosin, TBA-Cl, DMSO-d6/0.5% H2O, 298 K; for Association constant of Cl^− in the presence of HPF6 (1 equiv.), 1:1 (K a): 1:1 binding model; for Association constant of Cl^− in the presence of HPF6 (1 equiv.), 2:1, K 11 / Association constant of Cl^− in the presence of HPF6 (1 equiv.), 2:1, K 21: 2:1 binding model
Procedure: Proton NMR titrations were performed in DMSO-d 6/0.5% H2O, to assess the ability of compounds 1d and 2–8 to bind chloride, added as the tetrabutylammonium (TBA) salt, in solution. […] However, in the presence of one equivalent of HPF6, strong binding to chloride was observed through downfield shifts of the pyrrole-NH, indole-NH and the protonated imine-NH^+. All three resonances were fitted globally to the 1:1 or 2:1 (sandwich) binding models using Bindfit[48].
S8. 1H NMR Titration Binding Studies
S8.1. Equipment and Sample Preparation
1H NMR titrations were performed on a Bruker Avance AVII400 FT -NMR spectrometer with either SEF 1H/D-19F or DUL D/1H-13C, 5 mm z-gradient probes, operating at a frequency of 400 MHz for 1H NMR with the probe temperature maintained at 298 K unless otherwise stated as determined using a variable temperature unit ([…]). For all NMR titrations, a constant host concentration w as maintained (~ 5.0 mM) by using the host solution to dissolve the guest to make the guest stock solution. Over the course of the titration Hamiltonian Microlitre syringes were used to add aliquots of the guest stock solution to the NMR sample of the host solution.
The anions were added as the tetrabutylammonium (TBA) salts after being dried under high vacuum (< 1.0 mmHg) for 24 h. Stock solutions of the host ( ~ 5.0 mM) were prepared in a DMSO -d6/0.5%H2O mixture. In some titrations, protonation of the host species was achieved through the addition of 1 eq. hexafluorophosphoric acid (HPF6) to the host stock solution. The host stock solutions, with or without addition of HPF6, ( 500 μL) were transferred to an air -tight screw-cap NMR sample tube (5 mm ID) and the same host stock solution was used to prepare the standard guest titrant solution containing approximately 100 mM of the TBA-anion salts. T his ensured a constant concentration of the host (~ 5.0 mM) for the duration of the titration experiment.
S8.2. Titration Procedure
Over the course of the titration small aliquots (2 -100 μL) of the standard guest solution were added to the host solution ( ~ 500 μL) in the NMR tube. For ea ch titration 15 -20 data points were collected and at the end of the titration approximately 10 equivalents of the guest anion salt were present.
Upon each addition of the standard guest solution the samples were thoroughly shaken in the NMR tube and then allowed to equilibrate for up to 2 minutes inside the NMR probe before the spectra were taken. Throughout each titration experiment all parameters of the NMR s pectrometer […]
S8.3. Titration Data Fitting
For each 1H NMR titration, all the proton resonances were monitored for changes in chemical shift.
In the case of protonated host species at least one proton resonance was followed and for the neutral host species two or more proton resonances were followed, which allowed several data sets to use in determination of the association constant (Ka). Global fitting takes into account all data sets at the same time and this improves the quality of the nonlinear curve fitting. The supramolecular.org web applet10 was used to fit the collected titration data and allows the use of different binding models to fit the data in the best way. For compounds 1d and 2-8 firstly the 1:1 […]
cooperative or additive, was used. The quality of fit is determined by the covariance of the fit (covfit), which is calculated by dividing the (co)variance of the residual (experimental data − calculated data) with the covariance of the experimental data. A covariance of fit factor (F covfit) can be obtained by dividing the covfir from the 1:1 binding model by the covfit from the 2:1 binding model. Due to the higher number of parameters from the 2:1 binding model an improvement in the covfit (i.e. F covfit)

[2] = pKa by UV spectrophotometric titration in aqueous solution; type: physicochemical; conditions: for pK a (aq): apparent pKa, hexafluorophosphate buffered DMSO:water 50:50, 25 °C; for solubility in the pKa titration solvent system: hexafluorophosphate buffered DMSO:water 50:50
Description: The pK a at which protonation of the imine (N2, see Fig. 3) occurs gives an indication of the optimum pH for the binding of chloride anions. This is an important consideration in anti-cancer drug development as the external pH environment of cancer cells is mildly acidic (pH 6.7)[53] compared to that of healthy cells (pH 7.2–7.5)[54]. This can be exploited to selectively target cancer cells and potentially reduce the cytotoxic effects of perenosins when used as therapeutics for anti-cancer treatment. The apparent pK a values, shown in Table 1, for compounds 1d and 2–8 were determined both in aqueous solution (pK a (aq)) and in the presence of a 1-palmitoyl-2-oleoyl-sn-glycero-3-phosphocholine (POPC) lipid bilayer membrane (pK a (mem)). UV spectrophotometric titrations were conducted by varying the pH condition from neutral to acidic with the titration of either HPF6 or HCl.
The apparent pK a values were derived from nonlinear curve fitting of the absorbance plotted against the pH; global fitting of both wavelengths corresponding to the neutral and protonated species were performed whenever feasible, see Supplementary Information for details.
S6.1 pKa Studies in Aqueous Solution pKa values for compounds 1d, 2, 4, 5, 7 and 8 were determined experimentally in aqueous solution […]
in absorbance bet ween the UV-Vis spectra of the protonated and the neutral species. The titration solution was made up with a hexafluorophosphate buffered (100 mM) DMSO:water 50:50 solution (4990 μL) and a transporter solution (10 μL, 25 mM), and the pH of this was recorded. The UV-Vis spectra were recorded on an Agilent Cary 100 UV-Vis spectrophotometer at 25 °C with baseline correction, using standard 10 mm quartz glass cells. A baseline absorbance was measured on a hexafluorophosphate buffered (100 mM) DMSO:water 50:50 solution, and then the absorbance of the titration solution was measured. The pH of the solution was decreased stepwise by adding small aliquots of hexafluorophosphoric acid ([…]). After each pH decrease an absorbance measurement was taken. The absorbance at a certain wavelength (noted for each compound below) was plotted against the pH and then fitted using a dose response curve in OriginPro 9.1, where the point of inflection corresponds to the apparent pKa in aqueous solution.
Figure S38. Absorbance spectra taken over the course of a pH-spectrophotometric titration of 1d (25 mM) in a hexafluorophosphate buffered (100 mM) DMSO:water 50:50 mixture. Inset: Abs vs. pH with dose response curve fit and the point of inflection corresponding to the pKa value.
(1 picture or pasted object on this page, not shown here)

SMILES | Overall association constant β21 for the 2:1 host:guest complex [1] [M⁻¹] | partial protonation of the imine nitrogen [1] | Association constant of Cl^− in the presence of HPF6 (1 equiv.), 1:1 (K a) [1] [M⁻¹] | Association constant of Cl^− in the presence of HPF6 (1 equiv.), 2:1, K 11 [1] [M⁻¹] | Association constant of Cl^− in the presence of HPF6 (1 equiv.), 2:1, K 21 [1] [M⁻¹] | pK a (aq) [2] | solubility in the pKa titration solvent system [2]
CCCCCc1cc2cc(C)cc(/N=C/c3[nH]c4ccccc4c3C)c2[nH]1 [Perenosin 8] | 35500 | ~10% | 142 | 184 | 193 | 6.28 | 
CCCCCc1c(C)[nH]c(/C=N/c2cc(C)cc3cc[nH]c23)c1C [Perenosin 5] | 4630 |  | 2610 | 331 | 14 | 6.44 | 
CCCc1cc2cc(C)cc(/N=C/c3[nH]c(C)cc3C)c2[nH]1 [Perenosin 4] | 468000 |  | 3440 | 1530 | 306 | 6.78 | 
CCCCCc1cc2cc(C)cc(/N=C/c3[nH]c(C)c(CCCCC)c3C)c2[nH]1 [Perenosin 6] | 172000 |  | 78300 | 1090 | 158 |  | precipitation was observed
CCCCCc1cc(/N=C/c2[nH]c(C)cc2C)c2[nH]ccc2c1 [Perenosin 1d] | 333000 |  | 605 | 1750 | 190 | 6.35 | 
CCCCCc1cc2cc(C(F)(F)F)cc(/N=C/c3[nH]c(C)cc3C)c2[nH]1 [Perenosin 3] | 393000 |  | 3440 | 190 | 2070 |  | precipitation was observed
CCCCCc1cc(/N=C/c2[nH]c3ccccc3c2C)c2[nH]ccc2c1 [Perenosin 7] | 36500 | approximately 20% | 157 | 72 | 507 | 5.51 | 
CCCCCc1cc2cc(C)cc(/N=C/c3[nH]c(C)cc3C)c2[nH]1 [Perenosin 2] | 1.18e+06 |  | 2450 | 2500 | 473 | 6.08 | 
